Measured values: ChEMBL document CHEMBL1143883, “Fluoroolefins as amide bond mimics in dipeptidyl peptidase IV inhibitors” (Bioorg Med Chem Lett, 2008)

What was measured:
[1] = Plasma clearance in rat at 1 mg/kg, iv or 2 mg/kg, po; format: ADME, organism-based
[2] = Mean residence time in rat at 1 mg/kg, iv or 2 mg/kg, po; format: ADME, organism-based; details: in vivo
[3] = Metabolic stability in rat hepatocytes after 60 mins; format: ADME, cell-based, Hepatocyte; details: read-out: Stability
[4] = Oral bioavailability in rat at 2 mg/kg; format: ADME, organism-based; details: in vivo
Liver microsomes [5] = test: Metabolic stability in human liver microsome assessed as covalent binding per mg of protein; format: ADME
Liver microsomes [6] = test: Metabolic stability in rat liver microsome assessed as covalent binding per mg of protein; format: ADME
[7] = Half life in rat at 1 mg/kg, iv or 2 mg/kg, po; format: ADME, organism-based; details: in vivo
[8] = Metabolic stability in rat liver microsomes after 60 mins in presence of NADPH; format: ADME, Microsome; details: read-out: Stability
[9] = target: Voltage-gated inwardly rectifying potassium channel KCNH2 (Homo sapiens, UniProt Q12809)
Chain of Voltage-gated inwardly rectifying potassium channel KCNH2 (Q12809 whole entry): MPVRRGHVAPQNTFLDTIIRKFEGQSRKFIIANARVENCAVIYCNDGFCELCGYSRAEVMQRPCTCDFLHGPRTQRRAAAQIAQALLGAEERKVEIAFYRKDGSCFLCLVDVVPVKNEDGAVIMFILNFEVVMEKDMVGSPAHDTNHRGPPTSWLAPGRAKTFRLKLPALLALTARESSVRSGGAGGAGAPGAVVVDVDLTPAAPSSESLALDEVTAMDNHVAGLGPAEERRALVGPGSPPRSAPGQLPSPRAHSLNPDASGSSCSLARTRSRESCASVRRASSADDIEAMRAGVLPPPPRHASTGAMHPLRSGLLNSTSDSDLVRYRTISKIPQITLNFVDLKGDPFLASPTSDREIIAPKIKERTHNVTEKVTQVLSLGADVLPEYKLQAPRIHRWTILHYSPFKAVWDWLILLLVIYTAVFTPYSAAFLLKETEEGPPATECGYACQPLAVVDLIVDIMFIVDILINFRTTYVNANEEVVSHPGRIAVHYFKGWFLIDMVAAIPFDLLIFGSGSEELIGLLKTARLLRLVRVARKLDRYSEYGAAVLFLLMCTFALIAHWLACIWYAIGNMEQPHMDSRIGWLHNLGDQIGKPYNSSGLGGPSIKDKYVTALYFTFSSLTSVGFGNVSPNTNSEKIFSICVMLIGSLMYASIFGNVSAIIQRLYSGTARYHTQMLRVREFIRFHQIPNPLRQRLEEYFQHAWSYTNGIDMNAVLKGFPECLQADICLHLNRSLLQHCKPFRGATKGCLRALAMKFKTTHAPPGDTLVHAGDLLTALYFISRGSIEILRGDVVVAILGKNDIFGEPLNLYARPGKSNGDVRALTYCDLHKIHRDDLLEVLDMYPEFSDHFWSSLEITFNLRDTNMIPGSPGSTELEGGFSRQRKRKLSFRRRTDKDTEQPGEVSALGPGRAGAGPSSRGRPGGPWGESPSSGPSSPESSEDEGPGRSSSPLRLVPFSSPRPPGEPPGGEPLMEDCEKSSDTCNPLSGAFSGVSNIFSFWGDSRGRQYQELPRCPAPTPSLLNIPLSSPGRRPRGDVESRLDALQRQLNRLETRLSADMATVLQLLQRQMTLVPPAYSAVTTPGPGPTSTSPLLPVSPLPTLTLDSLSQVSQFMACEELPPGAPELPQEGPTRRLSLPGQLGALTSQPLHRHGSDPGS

SMILES | clearance [1] [mL/min/kg] | MRT [2] [h] | remaining at 1 h [3] [%] | bioavailability [4] [%] | Stability (Liver microsomes [5]) [pmol/mg] | Stability (Liver microsomes [6]) [pmol/mg] | half-life [7] [h] | remaining at 1 h [8] [%] | IC50 [9] [µM]
C[C@H](c1nc(-c2ccc(S(=O)(=O)C[14CH3])cc2Cl)no1)[C@H](N)C(F)=C1CCCC1.O=C(O)C(F)(F)F | – | – | – | – | 287 | 662 | – | – | –
CS(=O)(=O)c1ccc(-c2noc([C@@H](CC3CC3)[C@H](N)C(F)=C3CCCC3)n2)c(Cl)c1.O=C(O)C(F)(F)F | 54 | – | – | 1 | – | – | 1.5 | – | –
C[C@H](c1nc(-c2ccc(S(C)(=O)=O)cc2Cl)no1)[C@H](N)C(=O)N1CCCC1.O=C(O)C(F)(F)F | 6 | – | 88 | 27 | – | – | 0.86 | 56 | –

More lines, main results first:

clearance [1] [mL/min/kg] | MRT [2] [h] | remaining at 1 h [3] [%] | bioavailability [4] [%] | Stability (Liver microsomes [5]) [pmol/mg] | Stability (Liver microsomes [6]) [pmol/mg] | half-life [7] [h] | remaining at 1 h [8] [%] | SMILES | IC50 [9] [µM]
20 | 2 | 3 | 62 | – | – | – | – | CC(c1nc(-c2ccc(S(C)(=O)=O)cc2Cl)no1)[C@H](N)C(F)=C1CCCC1.O=C(O)C(F)(F)F (stereo partly drawn) | –
51 | – | – | 4 | – | – | 1.6 | – | CS(=O)(=O)c1ccc(-c2noc([C@@H](CCO)[C@H](N)C(F)=C3CCCC3)n2)c(Cl)c1.O=C(O)C(F)(F)F | 47
